# Assay results from US11001561B2, “Pyrimidinone derivatives as SHP2 antagonists” (MERCK PATENT GMBH, priority 2019, dated 2021).
# Counter-ions that a name gives are not always drawn.
# Target: Full length SHP2 protein (Recombinant Human SHP-2) (Homo sapiens (Human), UniProt Q06124)
# Experiment: SHP2 biochemical assay (DiFMUP substrate, activating peptide IRSI_2pY)
# Details: SHP-2 biochemical assay IC50 (μM), activating peptide IRSI_2pY 140 nM, DiFMUP, 60 min
# Protocol: The inhibition of SHP2 by compounds of the invention was monitored using the surrogate substrate DiFMUP after protein activation by a peptide bearing two appropriately spaced phosphotyrosine. […] The generation of the DiFMU product by activated SHP2 was monitored through Fluorescence measurement with a PerkinElmer Envision reader. The inhibitor dose response curves were analyzed with Genedata Screener.
# Chain of Full length SHP2 protein (Recombinant Human SHP-2) (Q06124 2-593): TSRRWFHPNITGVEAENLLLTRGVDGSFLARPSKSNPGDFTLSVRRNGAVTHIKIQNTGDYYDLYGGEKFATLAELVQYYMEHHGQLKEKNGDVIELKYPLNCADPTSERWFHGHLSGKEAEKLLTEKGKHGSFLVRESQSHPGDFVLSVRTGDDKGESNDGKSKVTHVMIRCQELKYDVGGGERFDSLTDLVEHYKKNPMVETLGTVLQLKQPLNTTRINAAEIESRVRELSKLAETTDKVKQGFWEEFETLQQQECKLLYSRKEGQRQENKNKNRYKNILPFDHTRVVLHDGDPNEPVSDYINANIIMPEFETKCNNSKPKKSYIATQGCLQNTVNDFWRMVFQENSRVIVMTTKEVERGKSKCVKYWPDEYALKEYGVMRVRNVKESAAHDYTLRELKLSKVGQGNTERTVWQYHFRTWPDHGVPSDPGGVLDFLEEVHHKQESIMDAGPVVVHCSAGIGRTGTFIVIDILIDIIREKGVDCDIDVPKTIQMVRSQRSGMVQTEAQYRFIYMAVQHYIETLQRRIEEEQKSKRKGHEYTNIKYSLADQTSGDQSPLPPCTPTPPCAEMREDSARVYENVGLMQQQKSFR
row,Structure (SMILES),IC50
1,"Cc1c(N2CCC3(CC2)Oc2ncccc2[C@H]3N)nc(C)n(-c2cccc(Cl)c2Cl)c1=O [Compound 79a, (3M)-6-[(3R)-3-amino-3H-spiro[furo[2,3-b]pyridine-2,4′-piperidin]-1′-yl]-3-(2,3-dichlorophenyl)-2,5-dimethylpyrimidin-4-one]",0.3 µM
2,"Cc1c(N[C@H]2CC[C@@H](N)CC2)ncn(-c2cccc(Cl)c2Cl)c1=O [Compound 85, 6-(4-Amino-cyclohexylamino)-3-(2,3-dichloro-phenyl)-5-methyl-3H-pyrimidin-4-one]",> 10 µM
3,"[2H]C([2H])([2H])c1c(N2CCC(C)(N)CC2)nc(C)n(-c2cccc(Cl)c2Cl)c1=O [Compound 94, 6-(4-amino-4-methylpiperidin-1-yl)-3-(2,3-dichlorophenyl)-5-(D3)methyl-2-methyl-3,4-dihydropyrimidin-4-one]",1.4 µM

# Same assay, conditions: activating peptide IRSI_2pY 140 nM, DiFMUP, 60 min; read-out: SHP-2 biochemical assay IC50
row,Structure (SMILES),IC50
1,"Cc1c(N2CCC(C)(CN)CC2)nc(C)n(-c2ccc3nccnc3c2)c1=O [Compound 55, 6-(4-Aminomethyl-4-methyl-piperidin-1-yl)-2,5-dimethyl-3-quinoxalin-6-yl-3H-pyrimidin-4-one]",> 10 µM
2,"Cc1nc(N2CC3CCC(C2)N3)cc(=O)n1-c1cccc(Cl)c1Cl [Compound 56, 6-3,8-diazabicyclo[3.2.1]octan-3-yl-3-(2,3-dichlorophenyl)-2-methyl-3,4-dihydropyrimidin-4-one]",5.2 µM
3,"Cc1nc(N2C[C@H]3CC(O)C[C@@]3(CN)C2)cc(=O)n1-c1cccc(Cl)c1Cl (stereo partly drawn) [Compound 59, 6-[(3aR,6aS)-3a-(aminomethyl)-5-hydroxy-octahydrocyclopenta[c]pyrrol-2-yl]-3-(2,3-dichlorophenyl)-2-methyl-3,4-dihydropyrimidin-4-one]",2.6 µM
4,"Cc1nc(N2CC3CC4CC(C4(C)C)C3(CN)C2)cc(=O)n1-c1cccc(Cl)c1Cl (stereo not shown) [Compound 60, 6-[2-(aminomethyl)-9,9-dimethyl-4-azatricyclo[6.1.1.0^2,6]decan-4-yl]-3-(2,3-dichlorophenyl)-2-methyl-3,4-dihydropyrimidin-4-one]",10 µM
5,"Cc1nc(N2CCN3C(=O)C(N)CC3C2)cc(=O)n1-c1cccc(Cl)c1Cl (stereo not shown) [Compound 61, 6-7-amino-6-oxo-octahydropyrrolo[1,2-a]pyrazin-2-yl-3-(2,3-dichlorophenyl)-2-methyl-3,4-dihydropyrimidin-4-one]",> 10 µM
6,"Cc1c(N2CCC(C)(N)CC2)ncn(-c2cccc(Cl)c2Cl)c1=O [Compound 70, 6-(4-Amino-4-methyl-piperidin-1-yl)-3-(2,3-dichloro-phenyl)-5-methyl-3H-pyrimidin-4-one]",> 10 µM
7,"Cc1nc(N2CCC3(CC2)CO[C@@H](C)[C@H]3N)c(CCO)c(=O)n1-c1cccc(Cl)c1Cl [Compound 76, 6-[(3S,4S)-4-amino-3-methyl-2-oxa-8-azaspiro[4.5]decan-8-yl]-3-(2,3-dichlorophenyl)-5-(2-hydroxyethyl)-2-methyl-3,4-dihydropyrimidin-4-one Hydrochloride]",7 µM
8,"Cc1c(N2CCc3cc(N)ccc3C2)nc(C)n(-c2cccc(Cl)c2Cl)c1=O [Compound 83, 6-(6-amino-1,2,3,4-tetrahydroisoquinolin-2-yl)-3-(2,3-dichlorophenyl)-2,5-dimethyl-3,4-dihydropyrimidin-4-one]",> 10 µM
9,"Cc1c(N2CCC3(CC2)CO[C@@H](C)[C@H]3N)nc(C)n(-c2cccc3ncsc23)c1=O [Compound 84, 6-((3S,4S)-4-Amino-3-methyl-2-oxa-8-aza-spiro[4.5]dec-8-yl)-3-benzothiazol-7-yl-2,5-dimethyl-3H-pyrimidin-4-one]",> 10 µM
10,"Cc1c(N2CCC3(CC2)CC3CN)nc(C)n(-c2cccc(Cl)c2Cl)c1=O (stereo not shown) [Compound 86, 6-[1-(aminomethyl)-6-azaspiro[2.5]octan-6-yl]-3-(2,3-dichlorophenyl)-2,5-dimethyl-3,4-dihydropyrimidin-4-one]",4.6 µM
11,"Cc1c(N2CC(CN)C(C)(C)C2)nc(C)n(-c2cccc(Cl)c2Cl)c1=O (stereo not shown) [Compound 87, 6-[4-(aminomethyl)-3,3-dimethylpyrrolidin-1-yl]-3-(2,3-dichlorophenyl)-2,5-dimeihyl-3,4-dihydropyrimidin-4-one]",7.9 µM
12,"Cc1c(N2CCC(CN)(CO)CC2)nc(C)n(-c2cccc(Cl)c2Cl)c1=O [Compound 88, 6-[4-(aminomethyl)-4-(hydroxymethyl)piperidin-1-yl]-3-(2,3-dichlorophenyl)-2,5-dimethyl-3,4-dihydropyrimidin-4-one]",0.59 µM
13,"Cc1c(N2CCC3(CC2)CC3N)nc(C)n(-c2cccc(Cl)c2Cl)c1=O (stereo not shown) [Compound 89, 6-1-amino-6-azaspiro[2.5]octan-6-yl-3-(2,3-dichlorophenyl)-2,5-dimethyl-3,4-dihydropyrimidin-4-one]",1.3 µM
14,"Cc1c(N2CCCC3(CCC3N)C2)nc(C)n(-c2cccc(Cl)c2Cl)c1=O (stereo not shown) [Compound 90, 6-1-amino-6-azaspiro[3.5]nonan-6-yl-3-(2,3-dichlorophenyl)-2,5-dimethyl-3,4-dihydropyrimidin-4-one]",3.9 µM
15,"Cc1c(N2CCCC(CN)CC2)nc(C)n(-c2cccc(Cl)c2Cl)c1=O (stereo not shown) [Compound 91, 6-[4-(aminomethyl)azepan-1-yl]-3-(2,3-dichlorophenyl)-2,5-dimethyl-3,4-dihydropyrimidin-4-one]",2 µM
16,"Cc1c(N2CCO[C@H](CN)C2)nc(C)n(-c2cccc(Cl)c2Cl)c1=O [Compound 92, 6-[(2R)-2-(aminomethyl)morpholin-4-yl]-3-(2,3-dichlorophenyl)-2,5-dimethyl-3,4-dihydropyrimidin-4-one]",16 µM
17,"Cc1nc(N2CCC(C)(N)CC2)c(C2CC2)c(=O)n1-c1cccc(Cl)c1Cl [Compound 93, 6-(4-Amino-4-methyl-piperidin-1-yl)-5-cyclopropyl-3-(2,3-dichloro-phenyl)-2-methyl-3H-pyrimidin-4-one]",12 µM
18,"COc1ccc(-n2c(C)nc(N3CCC4(CC3)CO[C@@H](C)[C@H]4N)c(C)c2=O)c(Cl)c1Cl [Compound 98, 6-((3S,4S)-4-Amino-3-methyl-2-oxa-8-aza-spiro[4.5]dec-8-yl)-3-(2,3-dichloro-4-methoxy-phenyl)-2,5-dimethyl-3H-pyrimidin-4-one]",0.5 µM
19,"Cc1c(N2CCN3CC(N)CC3C2)nc(C)n(-c2cccc(Cl)c2Cl)c1=O (stereo not shown) [Compound 100, (3M)-6-7-amino-octahydropyrrolo[1,2-a]pyrazin-2-yl-3-(2,3-dichlorophenyl)-2,5-dimethyl-3,4-dihydropyrimidin-4-one]",5.8 µM
20,"Cc1ccc(Cl)c(Cl)c1-n1c(C)nc(N2CCC3(CC2)CO[C@@H](C)[C@H]3N)c(C)c1=O [Compound 102, 6-((3S,4S)-4-Amino-3-methyl-2-oxa-8-aza-spiro[4.5]dec-8-yl)-3-(2,3-dichloro-6-methyl-phenyl)-2,5-dimethyl-3H-pyrimidin-4-one]",7.3 µM
21,"Cc1c(N2CCCC(C)(CN)CC2)nc(C)n(-c2cccc(Cl)c2Cl)c1=O (stereo not shown) [Compound 107, (3M)-6-[4-(aminomethyl)-4-methylazepan-1-yl]-3-(2,3-dichlorophenyl)-2,5-dimethyl-3,4-dihydropyrimidin-4-one]",1.2 µM
22,"Cc1c(N2CCC(C)(CN)CC2)nc(N)n(-c2cccc(Cl)c2Cl)c1=O [Compound 114, 2-Amino-6-(4-aminomethyl-4-methyl-piperidin-1-yl)-3-(2,3-dichloro-phenyl)-5-methyl-3H-pyrimidin-4-one]",1.4 µM
